Numbering of substitutions follows the chain as printed. Blank lines part the entries; values can stand above or below the compound they belong to.
Tests used:
Format in all cases: cell-based
[1] = system: PLB, HEK or A431 cells; assay: Cell viability assay after PGD loading; conditions: PGD loading 30 min at 37° C.; PLB cells counted for 9 days, HEK or A431 cells cultured 72 hours
Protocol: Control and ABCG2 expressing PLB-985 cells (1×10^6) were pre-incubated in the uptake buffer for 10 minutes at 37° C., then incubated with or without 0.5 μM PGD for 30 minutes at 37° C. The PGD-treated cells were sorted based on PG fluorescence by FACS Aria III Cell sorter (BD Bioscience, San Jose, CA, with 488 nm blue laser excitation and 530/30 nm emission). The sorted cells were suspended in 3 mL RMPI media in 6 well plates and live cell number was measured each day, dead cells were excluded by TO-PRO™-3 Iodide.
In order to estimate the EC50 values, HEK or A431 cells were treated with […] for 30 min at 37° C. in the EDTA-DPBS buffer, then washed and cultured in 2 mL DMEM media in 12 well plates for 72 hours. […]
In the first set of these experiments (FIG. 7, Panel A) we used control and ABCG2 expressing PLB cells, incubated in the PGD loading media with or without 0.5 μM PGD for 30 minutes at 37° C. The PGD-treated cells were then sorted based on PG fluorescence by flow cytometry, and the cells were resuspended in RPMI media. […]
In the second set of experiments HEK or A431 cells were treated with the indicated concentrations of PGD for 30 min at 37° C. in the loading media, then washed and cultured in normal cell culturing media for 72 hours. Live cell number was determined by flow cytometry, dead cells excluded by TO-PRO-3 staining (see Methods). […]

[2] = molecular target: T1, ABCG2 (Homo sapiens, UniProt Q9UNQ0); assay: PhenGreen (PG) accumulation by flow cytometry, ABCG2-expressing PLB and A431 cells; set-up: expressed in transfected cells; host or cells: PLB-985 and A431 cells (retroviral transduction)
T1 sequence (Q9UNQ0 1-655): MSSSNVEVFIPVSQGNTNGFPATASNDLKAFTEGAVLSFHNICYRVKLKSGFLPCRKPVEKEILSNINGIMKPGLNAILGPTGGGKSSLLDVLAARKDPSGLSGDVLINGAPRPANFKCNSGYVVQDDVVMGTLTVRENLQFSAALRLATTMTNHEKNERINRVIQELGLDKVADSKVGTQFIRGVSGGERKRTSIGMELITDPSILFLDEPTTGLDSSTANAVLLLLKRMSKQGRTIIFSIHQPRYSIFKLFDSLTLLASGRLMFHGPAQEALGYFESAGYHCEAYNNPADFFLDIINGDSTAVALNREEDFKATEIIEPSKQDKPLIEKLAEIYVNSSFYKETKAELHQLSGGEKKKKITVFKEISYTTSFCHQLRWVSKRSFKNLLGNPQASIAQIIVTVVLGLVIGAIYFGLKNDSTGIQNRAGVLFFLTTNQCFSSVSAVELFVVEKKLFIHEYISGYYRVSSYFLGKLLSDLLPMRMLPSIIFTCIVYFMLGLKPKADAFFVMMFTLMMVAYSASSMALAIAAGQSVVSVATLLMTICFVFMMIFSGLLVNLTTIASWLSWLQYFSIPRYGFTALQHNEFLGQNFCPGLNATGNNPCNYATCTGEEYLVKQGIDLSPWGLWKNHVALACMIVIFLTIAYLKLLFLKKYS
Protocol: In order to follow the time-dependent accumulation of PG, 5×10^5 cells were washed twice with 1 mL DPBS (1 g/L D-glucose with phosphate buffered saline), then pre-incubated in the uptake buffer (1 mM EDTA in DPBS) for 10 minutes at 37° C. Thereafter the cells were incubated in the uptake buffer with various concentrations of PhenGreen SK diacetate (PGD), with or without transporter inhibitor, at 37° C., for 1-60 minutes. Dye uptake was stopped by the addition of 150 μl ice-cold EDTA-DPBS, the cells were kept on ice until the measurements (see FIG. 12.). For assessing the PGD concentration dependence of PG accumulation, 5×10^5 PLB-985 or A431 cells, expressing the ABCB1 or ABCG2 transporters, or HL-60 and HEK-293 cells, expressing ABCC1, were washed twice with 1 mL DPBS, then pre-incubated in EDTA-DPBS medium for 10 minutes at room temperature. The cells were incubated in EDTA-DPBS with 0.1-5 μM of PGD at 37° C. for 30 minutes. Dye uptake was stopped by the addition of 150 μl ice-cold EDTA-DPBS. The cells were kept on ice until the measurement.
(§1) The cells (5×10^5) were incubated with 0.5 μM PGD or 1 μM (Mx) with or without inhibitors, for 30 (PGD) or 60 (Mx) minutes at 37° C. The reaction was stopped by the addition of ice-cold EDTA-DPBS and fluorescence was measured as described above.
All experiments were performed at least three times. Data analysis was performed using FACSDiva v6.1.3 Software (BD Bioscience, San Jose, CA), flow cytometry figures were prepared with the Attune Acoustic Focusing Cytometer v1.25 Software (Applied Biosystems, Life Technologies, Carlsbad, CA, USA). Results were expressed as median±standard deviation. The MDR activity factor % (MAF %—see refs [Homolya L et al. Br J Cancer. 1996; Holló Z et al. Anticancer Res. 1998; 18: 2981-7., Sarkadi et al. U.S. Pat. No. 5,872,014 1999]) was calculated as follows: MAF %=(((MFIinh−MFI0)/MFIinh)×100), wherein MFIinh and MFI0 are the median fluorescence intensity (MFI) with (inh) or without (0) inhibitor. The EC50 analysis was carried out using the Origin 8.6. software.

[3] = system: human peripheral blood mononuclear cells (PBMCs); assay: Functional test of ABCG2, ABCB1 or ABCC1 transporter function in PBMCs
Protocol: Freshly drawn venous blood samples were collected from healthy donors into EDTA coated tubes. Peripheral blood mononuclear cells (PBMCs) were isolated by Ficoll-histopaque density gradient centrifugation. The PBMCs were washed twice with 1 mL EDTA-DPBS uptake buffer (1 mM EDTA and 1 g/L D-glucose with phosphate buffered saline). The various cell populations can be stained with cluster of differentiation markers (CD markers), conjugated by e.g. APC, APC-Cy7, Pacific blue, or other fluorescent marker. After CD labeling the cells were incubated in the uptake buffer with 1 μM PhenGreen SK diacetate (PGD), or 0.25 μM Calcein-AM (CaAM) or 1 μM mitoxantrone (Mx), with or without selective transporter inhibitors, for 30 minutes (PGD and CaAM) or 60 minutes (Mx) at 37° C. […] The reaction was stopped by the addition of ice-cold EDTA-DPBS and fluorescence was measured as described above.
[…] cell populations, i.e. granulocytes, monocytes and lymphocytes have been visualized by flow cytometry as described in the Materials and Methods chapter (Panel A). […] MDR activity factors were calculated as described above based on the measurements of the accumulation of the three fluorescent dyes, with or without inhibitors, in the respective leukocyte populations (Panel C).

[4] = molecular target: T2, ABCB1 (Homo sapiens, UniProt P08183); assay: PhenGreen (PG) accumulation by flow cytometry, ABCB1-expressing PLB and A431 cells
T2 construct: expressed in transfected cells; host or cells: PLB-985 and A431 cells (retroviral transduction)
Protocol: (§2) In order to follow the time-dependent accumulation of PG, 5×10^5 cells were washed twice with 1 mL DPBS (1 g/L D-glucose with phosphate buffered saline), then pre-incubated in the uptake buffer (1 mM EDTA in DPBS) for 10 minutes at 37° C. Thereafter the cells were incubated in the uptake buffer with various concentrations of PhenGreen SK diacetate (PGD), with or without transporter inhibitor, at 37° C., for 1-60 minutes. Dye uptake was stopped by the addition of 150 μl ice-cold EDTA-DPBS, the cells were kept on ice until the measurements (see FIG. 12.). […]
as §1
(§3) All experiments were performed at least three times. […] Results were expressed as median±standard deviation. The MDR activity factor % (MAF %—see refs [Homolya L et al. Br J Cancer. 1996; Holló Z et al. Anticancer Res. 1998; 18: 2981-7., Sarkadi et al. U.S. Pat. No. 5,872,014 1999]) was calculated as follows: MAF %=(((MFIinh−MFI0)/MFIinh)×100), wherein MFIinh and MFI0 are the median fluorescence intensity (MFI) with (inh) or without (0) inhibitor. […]

[5] = molecular target: T3, ABCC1 (Homo sapiens, UniProt P33527); assay: PhenGreen (PG) accumulation by flow cytometry, ABCC1-expressing HL-60 and HEK cells
T3 construct: expressed in transfected cells; host or cells: HL-60 and HEK-293 cells (retroviral transduction)
Protocol: as §2, §1, §3

[6] = molecular target: T1, ABCG2; assay: PG accumulation examined by confocal microscopy in PLB and PLB-ABCG2 cells; set-up: expressed in transfected cells; host or cells: PLB-985 cells (retroviral transduction); conditions: PLB-ABCG2 cells, 0.5 μM PGD, 30 minutes, no inhibitor
Protocol: For confocal microscopy the cells (5×10^5) were washed twice with 1 mL DPBS, then pre-incubated with 1 μg/mL Alexa Fluor-647 conjugated wheat-germ agglutinin (WGA-A647) in uptake buffer for 5 minutes at room temperature. Thereafter the cells were incubated with 0.5 μM PGD with or without transporter inhibitors for 30 minutes at 37° C. PGD uptake was stopped by washing the cells with 1 mL DPBS. The images were acquired by a Zeiss LSCM 710 microscope using a 63×NA=1.4 Plan Apo objective. Images were captured and analyzed by Zen2 (Blue edition) Software.
In order to examine the wider applicability of the PGD-based assay for functional ABCG2 transporter studies, we examined PG accumulation in control PLB cells and in PLB cells expressing ABCG2, by using fluorescence (confocal) microscopy.
In these experiments, in order to label the plasma membrane compartment of the cells, we also included the staining of live PLB cells with a fluorescent anti-WGA antibody.

[7] = molecular target: T4, ABCG2 (Homo sapiens, UniProt Q9UNQ0, K86M); assay: PhenGreen (PG) accumulation by flow cytometry, ABCG2-expressing PLB and A431 cells; conditions: PLB cells expressing ABCG2-K86M
T4 construct: expressed in transfected cells; host or cells: PLB-985 and A431 cells (retroviral transduction)
T4 sequence (Q9UNQ0 1-655 K86M): T1 sequence (Q9UNQ0 1-655) with K86M
Protocol: as §2, §1, §3

[8] = molecular target: T1, ABCG2; assay: Mitoxantrone (MX) accumulation by flow cytometry, ABCG2-expressing PLB and A431 cells; set-up: expressed in transfected cells; host or cells: PLB-985 and A431 cells (retroviral transduction); conditions: control and ABCG2 expressing PLB and A431 cells, 1 μM MX, 60 minutes

T2 sequence (P08183 whole entry): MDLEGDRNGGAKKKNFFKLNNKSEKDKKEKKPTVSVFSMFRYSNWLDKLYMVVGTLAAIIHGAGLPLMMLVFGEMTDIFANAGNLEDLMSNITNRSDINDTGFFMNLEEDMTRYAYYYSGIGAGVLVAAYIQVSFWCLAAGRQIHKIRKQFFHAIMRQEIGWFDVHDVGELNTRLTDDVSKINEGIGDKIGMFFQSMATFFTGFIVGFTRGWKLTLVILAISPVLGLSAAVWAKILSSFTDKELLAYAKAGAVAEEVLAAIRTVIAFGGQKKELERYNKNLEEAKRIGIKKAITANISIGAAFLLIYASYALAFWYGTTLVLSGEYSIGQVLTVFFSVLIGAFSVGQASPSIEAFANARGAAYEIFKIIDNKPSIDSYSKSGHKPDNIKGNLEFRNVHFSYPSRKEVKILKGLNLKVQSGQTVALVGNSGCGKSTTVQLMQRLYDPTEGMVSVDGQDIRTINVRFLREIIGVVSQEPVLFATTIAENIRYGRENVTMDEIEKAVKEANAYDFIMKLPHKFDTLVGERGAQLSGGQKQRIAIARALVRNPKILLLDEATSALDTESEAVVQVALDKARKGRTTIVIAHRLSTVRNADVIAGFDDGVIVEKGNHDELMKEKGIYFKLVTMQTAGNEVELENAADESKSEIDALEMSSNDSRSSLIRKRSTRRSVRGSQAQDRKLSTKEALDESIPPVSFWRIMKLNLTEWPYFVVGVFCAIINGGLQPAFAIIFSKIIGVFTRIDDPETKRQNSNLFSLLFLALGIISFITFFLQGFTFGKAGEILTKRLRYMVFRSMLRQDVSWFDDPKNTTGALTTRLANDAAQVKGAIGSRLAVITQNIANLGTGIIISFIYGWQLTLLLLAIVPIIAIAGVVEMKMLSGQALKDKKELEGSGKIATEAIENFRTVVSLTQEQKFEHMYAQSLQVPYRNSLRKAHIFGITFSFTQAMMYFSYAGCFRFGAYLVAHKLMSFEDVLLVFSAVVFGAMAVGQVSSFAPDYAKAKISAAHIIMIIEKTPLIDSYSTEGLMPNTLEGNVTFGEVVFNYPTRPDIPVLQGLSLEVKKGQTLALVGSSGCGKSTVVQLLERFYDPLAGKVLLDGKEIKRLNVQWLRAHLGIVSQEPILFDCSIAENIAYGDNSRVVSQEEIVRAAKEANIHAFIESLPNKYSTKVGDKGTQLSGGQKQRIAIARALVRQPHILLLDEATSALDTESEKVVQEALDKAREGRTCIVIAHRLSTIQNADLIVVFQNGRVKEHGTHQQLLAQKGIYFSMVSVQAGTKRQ
T3 sequence (P33527 whole entry): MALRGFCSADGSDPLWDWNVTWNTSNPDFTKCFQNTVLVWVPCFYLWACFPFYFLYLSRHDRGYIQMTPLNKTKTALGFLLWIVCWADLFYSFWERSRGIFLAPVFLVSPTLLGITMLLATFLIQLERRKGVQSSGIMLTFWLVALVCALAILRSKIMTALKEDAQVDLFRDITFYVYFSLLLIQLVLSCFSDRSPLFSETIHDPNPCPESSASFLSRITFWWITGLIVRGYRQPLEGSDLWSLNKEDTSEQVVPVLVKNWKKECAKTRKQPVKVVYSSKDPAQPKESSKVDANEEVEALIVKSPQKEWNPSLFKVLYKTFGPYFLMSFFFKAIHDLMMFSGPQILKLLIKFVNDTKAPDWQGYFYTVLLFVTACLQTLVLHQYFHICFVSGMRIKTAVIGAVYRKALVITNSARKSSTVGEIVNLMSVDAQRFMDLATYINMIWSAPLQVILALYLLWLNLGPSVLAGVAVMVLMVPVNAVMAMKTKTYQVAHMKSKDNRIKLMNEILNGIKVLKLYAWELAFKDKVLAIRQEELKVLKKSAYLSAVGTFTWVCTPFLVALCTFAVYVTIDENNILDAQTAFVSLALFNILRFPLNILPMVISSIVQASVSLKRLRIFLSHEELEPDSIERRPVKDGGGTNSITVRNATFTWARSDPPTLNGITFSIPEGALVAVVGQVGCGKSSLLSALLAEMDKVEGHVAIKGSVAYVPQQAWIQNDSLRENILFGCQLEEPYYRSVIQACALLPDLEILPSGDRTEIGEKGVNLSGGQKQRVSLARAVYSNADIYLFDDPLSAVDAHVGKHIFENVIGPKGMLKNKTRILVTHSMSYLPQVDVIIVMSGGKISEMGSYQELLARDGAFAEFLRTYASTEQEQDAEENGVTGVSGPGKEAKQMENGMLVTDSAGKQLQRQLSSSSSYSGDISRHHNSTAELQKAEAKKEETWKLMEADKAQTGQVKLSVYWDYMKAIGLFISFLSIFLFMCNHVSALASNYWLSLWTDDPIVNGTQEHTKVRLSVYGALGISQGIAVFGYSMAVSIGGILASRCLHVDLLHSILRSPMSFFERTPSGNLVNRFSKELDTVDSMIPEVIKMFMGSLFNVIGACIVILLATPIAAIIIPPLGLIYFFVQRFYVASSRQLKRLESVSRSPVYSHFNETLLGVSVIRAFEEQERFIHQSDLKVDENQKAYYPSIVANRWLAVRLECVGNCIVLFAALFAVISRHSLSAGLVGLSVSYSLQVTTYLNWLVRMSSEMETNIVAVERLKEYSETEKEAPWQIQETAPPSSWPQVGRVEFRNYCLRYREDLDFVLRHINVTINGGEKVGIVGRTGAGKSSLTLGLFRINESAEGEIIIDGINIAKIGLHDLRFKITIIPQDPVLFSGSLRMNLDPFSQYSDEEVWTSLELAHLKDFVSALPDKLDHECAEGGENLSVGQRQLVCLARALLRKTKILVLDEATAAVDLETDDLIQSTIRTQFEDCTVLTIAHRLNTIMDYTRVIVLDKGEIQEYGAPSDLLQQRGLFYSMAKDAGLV

Compound: CC(=O)Oc1cc2c(cc1Cl)C1(OC(=O)c3cc(C(=O)Nc4cc5cccnc5c5ncccc45)ccc31)c1cc(Cl)c(OC(C)=O)cc1O2 [PGD, PhenGreen SK diacetate]
- effect of PG accumulation on cell growth [1]: no measurable effect on the growth of the cells
- time in which the increase in cellular PG fluorescence saturated ([2]; PLB cells, 0.5 to 2.5 μM PGD in the media, 37° C.): less than 30 minutes
- effect of ABCG2 protein on accumulated PG fluorescence ([2]; PLB vs PLB-ABCG2 cells, low (below 1 μM) PGD, 30 minutes at 37° C., flow cytometry): major difference in the amount of the accumulated PG fluorescence
- transporter substrate activity in mononuclear cell populations ([3]; granulocytes, monocytes and lymphocytes, 1 μM PGD, 30 minutes at 37° C.): active substrate in each cell type
- MAF factor compared with other dyes ([3]; monocytes, ABCG2, ABCB1 and ABCC1 with selective inhibitors): higher MAF factor than Calcein AM and mitoxantrone for each of the transporters
- applicability for calculating the MDR activity factor, compared with mitoxantrone ([4]; ABCB1 expressing PLB cells): similarly or better applicable than MX
- PG accumulation in ABCB1 expressing cells versus control parental cells ([4]; PLB and A431 cells, 0.1-5 μM PGD, EDTA-DPBS, 30 minutes at 37° C.): significantly lower levels of PG than their control parental cells
- applicability for calculating the MDR activity factor, compared with mitoxantrone ([5]; ABCC1 expressing HL-60 cells): similarly or better applicable than MX
- PG accumulation in ABCC1 expressing cells versus control parental cells ([5]; HL-60 and HEK cells, 0.1-5 μM PGD, EDTA-DPBS, 30 minutes at 37° C.): significantly lower levels of PG than their control parental cells

- cytoplasmic PG accumulation (confocal microscopy) [6]: practically did not accumulate PG
- effect of non-functional catalytic mutant ABCG2-K86M on PG accumulation [7]: no effect on PG accumulation
- MDR activity factor (MAF) from PG accumulation in absence or presence of Ko143 ([2]; PLB cells expressing wild-type ABCG2): high activity level
Compound: PhenGreen SK [PG]

Compound: O=C1c2c(O)ccc(O)c2C(=O)c2c(NCCNCCO)ccc(NCCNCCO)c21 [MX, mitoxantrone]
- MDR activity factor (MAF) based on MX extrusion [8]: essentially similar results as obtained by using PG accumulation
